Data: PubChem BioAssay (NCI)
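In this assay, cells in 96-well plates receive the compound at five concentrations for 48 hours. Endpoints are linearly interpolated between the surrounding concentrations. Definition used: TGI = concentration required for complete inhibition of growth.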

Tests used:
Assay in all cases: inhibition of tumour cell growth, NCI panel, 48 h
HOP-18 NSCLC = system: HOP-18 NSCLC
LXFL 529 NSCLC = system: LXFL 529 NSCLC
DLD-1 colon = system: DLD-1 colon
IGROV1 ovarian = system: IGROV1 ovarian
M19-MEL melanoma = system: M19-MEL melanoma
K-562 leukemia = system: K-562 leukemia
RXF-631 renal = system: RXF-631 renal
RXF 393 renal = system: RXF 393 renal
HCT-15 colon = system: HCT-15 colon
HCT-116 colon = system: HCT-116 colon
COLO 205 colon = system: COLO 205 colon
786-0 renal = system: 786-0 renal
UO-31 renal = system: UO-31 renal
CCRF-CEM leukemia = system: CCRF-CEM leukemia
SW-620 colon = system: SW-620 colon
SNB-78 CNS = system: SNB-78 CNS
DMS 114 small cell lung = system: DMS 114 small cell lung
RPMI-8226 leukemia = system: RPMI-8226 leukemia
OVCAR-3 ovarian = system: OVCAR-3 ovarian
OVCAR-8 ovarian = system: OVCAR-8 ovarian
SK-MEL-5 melanoma = system: SK-MEL-5 melanoma
U251 CNS = system: U251 CNS
SK-MEL-28 melanoma = system: SK-MEL-28 melanoma
SF-295 CNS = system: SF-295 CNS
M14 melanoma = system: M14 melanoma
TK-10 renal = system: TK-10 renal
HL-60(TB) leukemia = system: HL-60(TB) leukemia
NCI-H522 lung = system: NCI-H522 lung
HT29 colon = system: HT29 colon
UACC-62 melanoma = system: UACC-62 melanoma
EKVX NSCLC = system: EKVX NSCLC
ACHN renal = system: ACHN renal
SF-268 CNS = system: SF-268 CNS
SK-MEL-2 melanoma = system: SK-MEL-2 melanoma
NCI-H460 lung = system: NCI-H460 lung
LOX IMVI melanoma = system: LOX IMVI melanoma
A549 NSCLC = system: A549 NSCLC
HOP-62 NSCLC = system: HOP-62 NSCLC
SN12C renal = system: SN12C renal
KM20L2 colon = system: KM20L2 colon
KM12 colon = system: KM12 colon
HOP-92 NSCLC = system: HOP-92 NSCLC
SR leukemia = system: SR leukemia
DMS 273 small cell lung = system: DMS 273 small cell lung
SF-539 CNS = system: SF-539 CNS
OVCAR-4 ovarian = system: OVCAR-4 ovarian
SNB-75 CNS = system: SNB-75 CNS
A498 renal = system: A498 renal
UACC-257 melanoma = system: UACC-257 melanoma
NCI-H226 lung = system: NCI-H226 lung
MALME-3M melanoma = system: MALME-3M melanoma
CAKI-1 renal = system: CAKI-1 renal
OVCAR-5 ovarian = system: OVCAR-5 ovarian
SK-OV-3 ovarian = system: SK-OV-3 ovarian
SNB-19 CNS = system: SNB-19 CNS

Measured: TGI

Nc1nc2ncn(CC(O)CO)c2c(=O)[nH]1 (stereo not given)
> 100 µM: all assays above
